Assay results: patent US7462600B2, “Macrolides” (Pfizer Inc, priority 2004, dated 2008)
Converted amounts (≈) assume the structure as drawn.

Assays:
Assay type in all cases: cell-based
[1] = system: Streptococcus pyogenes 1079; assay: MIC, microtiter broth dilution (NCCLS M100-S14), S. pyogenes 1079 (ermB); settings: Streptococcus pyogenes 1079
Outline: (§1)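 Minimum inhibitory concentration by broth microdilution in trays (NCCLS M100-S14); starting stocks 40 mg/ml, DMSO.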

[2] = system: Streptococcus pneumoniae 1016; assay: MIC, microtiter broth dilution (NCCLS M100-S14), S. pneumoniae 1016 (susceptible); settings: Streptococcus pneumoniae 1016
Outline: as §1

[3] = system: Streptococcus pneumoniae 1095; settings: Streptococcus pneumoniae 1095; microtiter broth dilution
Outline: as §1

[4] = system: Streptococcus pneumoniae 1175; settings: Streptococcus pneumoniae 1175; microtiter broth dilution
Outline: as §1

[5] = system: Haemophilus influenzae 1218; assay: MIC, microtiter broth dilution (NCCLS M100-S14), H. influenzae 1218 (susceptible); settings: Haemophilus influenzae 1218
Outline: as §1

SMILES	MIC S. pyogenes 1079 [1] [µg/mL]	MIC S. pneumo. 1016 [2] [µg/mL]	MIC S. pneumo. 1095 [3] [µg/mL]	MIC S. pneumo. 1175 [4] [µg/mL]	MIC H. influenzae 1218 [5] [µg/mL]
CCC1OC(=O)C(C)C(=O)C(C)C(OC2OC(C)CC(N(C)C)C2O)C(C)(OC)CC(C)C(=O)C(C)C2N(C3CN(S(=O)(=O)c4ccc(-c5cnco5)cc4)C3)C(=O)OC12C (stereo not drawn) [Example 3.13, 3-descladinosyl-11,12-dideoxy-6-O-methyl-3-oxo-12,11-(oxycarbonyl-(1-(4-(oxazol-5-yl)-benzenesulfonyl)-azetidin-3-yl)-imino)-erythromycin A]	4 (≈ 4.57 µM)	<0.06	0.12 (≈ 0.137 µM)	<0.06	0.25 (≈ 0.286 µM)
CCC1OC(=O)C(C)C(=O)C(C)C(OC2OC(C)CC(N(C)C)C2O)C(C)(OC)CC(C)C(=O)C(C)C2N(C3CN(S(=O)(=O)c4ccc(-n5nc(C)c(=O)[nH]c5=O)cc4)C3)C(=O)OC12C (stereo not drawn) [Example 3.14, 4-(4,5-dihydro-6-methyl-3,5-dioxo-1,2,4-triazin-2(3H)-yl)benzenesulfonyl]	>64.00	<0.06	1 (≈ 1.07 µM)	1 (≈ 1.07 µM)	1 (≈ 1.07 µM)
CCC1OC(=O)C(C)C(=O)C(C)C(OC2OC(C)CC(N(C)C)C2O)C(C)(OC)CC(C)C(=O)C(C)C2N(C3CN(S(=O)(=O)c4cnc5ccccn45)C3)C(=O)OC12C (stereo not drawn) [Example 3.15, 3-descladinosyl-11,12-dideoxy-6-O-methyl-3-oxo-12,11-(oxycarbonyl-(1-(H-imidazo[1,2-a]pyridine-3-sulfonyl)-azetidin-3-yl)-imino)-erythromycin A]	1 (≈ 1.18 µM)	<0.06	<0.06	<0.06	0.25 (≈ 0.295 µM)
CCC1OC(=O)C(C)C(=O)C(C)C(OC2OC(C)CC(N(C)C)C2O)C(C)(OC)CC(C)C(=O)C(C)C2N(C3CN(S(=O)(=O)c4ccc(-n5cccn5)nc4)C3)C(=O)OC12C (stereo not drawn) [Example 3.16, 3-descladinosyl-11,12-dideoxy-6-O-methyl-3-oxo-12,11-(oxycarbonyl-(1-(6-(1H-pyrazol-1-yl)pyridine-3-sulfonyl)-azetidin-3-yl)-imino)-erythromycin A]	1 (≈ 1.14 µM)	<0.06	<0.06	<0.06	0.5 (≈ 0.571 µM)
CCC1OC(=O)C(C)C(=O)C(C)C(OC2OC(C)CC(N(C)C)C2O)C(C)(OC)CC(C)C(=O)C(C)C2N(C3CN(S(=O)(=O)c4cnc5ncccn45)C3)C(=O)OC12C (stereo not drawn) [Example 3.17, 3-descladinosyl-11,12-dideoxy-6-O-methyl-3-oxo-12,11-(oxycarbonyl-(1-(imidazo[1,2-a]pyrimidine-3-sulfonyl)-azetidin-3-yl)-imino)-erythromycin A]	4 (≈ 4.71 µM)	<0.06	<0.06	0.12 (≈ 0.141 µM)	0.5 (≈ 0.589 µM)
CCC1OC(=O)C(C)C(=O)C(C)C(OC2OC(C)CC(N(C)C)C2O)C(C)(OC)CC(C)C(=O)C(C)C2N(C3CN(S(=O)(=O)c4ccccc4C#N)C3)C(=O)OC12C (stereo not drawn) [Example 3.18, 3-descladinosyl-11,12-dideoxy-6-O-methyl-3-oxo-12,11-(oxycarbonyl-(1-(2-cyanobenzenesulfonyl)-azetidin-3-yl)-imino)-erythromycin A]	2 (≈ 2.4 µM)	<0.06	1 (≈ 1.2 µM)	<0.06	0.12 (≈ 0.144 µM)
CCC1OC(=O)C(C)C(=O)C(C)C(OC2OC(C)CC(N(C)C)C2O)C(C)(OC)CC(C)C(=O)C(C)C2N(C3CN(S(=O)(=O)c4ncn5ccccc45)C3)C(=O)OC12C (stereo not drawn) [Example 3.19, 3-descladinosyl-11,12-dideoxy-6-O-methyl-3-oxo-12,11-(oxycarbonyl-(1-(H-imidazo[1,5-a]pyridine-1-sulfonyl)-azetidin-3-yl)-imino)-erythromycin A]	1 (≈ 1.18 µM)	<0.06	<0.06	<0.06	0.25 (≈ 0.295 µM)
CCC1OC(=O)C(C)C(=O)C(C)C(OC2OC(C)CC(N(C)C)C2O)C(C)(OC)CC(C)C(=O)C(C)C2N(C3CN(S(=O)(=O)c4ccc(-c5n[nH]c(=O)[nH]c5=O)cc4)C3)C(=O)OC12C (stereo not drawn) [Example 3.20, 3-descladinosyl-11,12-dideoxy-6-O-methyl-3-oxo-12,11-(oxycarbonyl-(1-(4-(2,3,4,5-tetrahydro-3,5-dioxo-1,2,4-triazin-6-yl)benzenesulfonyl)-azetidin-3-yl)-imino)-erythromycin A]	8 (≈ 8.7 µM)	<0.06	<0.06	2 (≈ 2.18 µM)	0.5 (≈ 0.544 µM)
CCC1OC(=O)C(C)C(=O)C(C)C(OC2OC(C)CC(N(C)C)C2O)C(C)(OC)CC(C)C(=O)C(C)C2N(C3CN(S(=O)(=O)c4cnn(-c5ccccn5)c4)C3)C(=O)OC12C (stereo not drawn) [Example 3.21, 1-(pyridin-2-yl)-1H-pyrazole-4-sulfonyl]	>64.00	<0.06	<0.06	<0.06	1 (≈ 1.14 µM)
CCC1OC(=O)C(C)C(=O)C(C)C(OC2OC(C)CC(N(C)C)C2O)C(C)(OC)CC(C)C(=O)C(C)C2N(C3CN(S(=O)(=O)c4ccc5oc(=O)[nH]c5c4)C3)C(=O)OC12C (stereo not drawn) [Example 3.22, 3-descladinosyl-11,12-dideoxy-6-O-methyl-3-oxo-12,11-(oxycarbonyl-(1-(2,3-dihydro-2-oxobenzo[d]oxazole-5-sulfonyl)-azetidin-3-yl)-imino)-erythromycin A]	1 (≈ 1.16 µM)	<0.06	4 (≈ 4.62 µM)	0.5 (≈ 0.578 µM)	0.25 (≈ 0.289 µM)
CCC1OC(=O)C(C)C(=O)C(C)C(OC2OC(C)CC(N(C)C)C2O)C(C)(OC)CC(C)C(=O)C(C)C2N(C3CN(S(=O)(=O)c4ccc(S(C)(=O)=O)cc4)C3)C(=O)OC12C (stereo not drawn) [Example 3.23, 4-(methylsulfonyl) benzenesulfonyl]	>64.00	<0.06	0.25 (≈ 0.282 µM)	<0.06	1 (≈ 1.13 µM)
CCC1OC(=O)C(C)C(=O)C(C)C(OC2OC(C)CC(N(C)C)C2O)C(C)(OC)CC(C)C(=O)C(C)C2N(C3CN(S(=O)(=O)c4ccccc4S(C)(=O)=O)C3)C(=O)OC12C (stereo not drawn) [Example 3.25, 2-(methylsulfonyl) benzenesulfonyl]	>64.00	<0.06	<0.06	0.25 (≈ 0.282 µM)	1 (≈ 1.13 µM)
CCC1OC(=O)C(C)C(=O)C(C)C(OC2OC(C)CC(N(C)C)C2O)C(C)(OC)CC(C)C(=O)C(C)C2N(C3CN(S(=O)(=O)c4ccc(Oc5ccncc5)cc4)C3)C(=O)OC12C (stereo not drawn) [Example 3.26]	64 (≈ 71 µM)	<0.06	<0.06	8 (≈ 8.88 µM)	4 (≈ 4.44 µM)
CCC1OC(=O)C(C)C(=O)C(C)C(OC2OC(C)CC(N(C)C)C2O)C(C)(OC)CC(C)C(=O)C(C)C2N(C3CN(S(=O)(=O)c4ccc(Oc5cccnc5)cc4)C3)C(=O)OC12C (stereo not drawn) [Example 3.27, 4-(pyridin-3-yloxy) benzenesulfonyl]	32 (≈ 35.5 µM)	<0.06	<0.06	<0.06	1 (≈ 1.11 µM)
CCC1OC(=O)C(C)C(=O)C(C)C(OC2OC(C)CC(N(C)C)C2O)C(C)(OC)CC(C)C(=O)C(C)C2N(C3CN(S(=O)(=O)c4cn(C)c(C)n4)C3)C(=O)OC12C (stereo not drawn) [Example 3.28]	>64.00	<0.06	<0.06	4 (≈ 4.84 µM)	1 (≈ 1.21 µM)
CCC1OC(=O)C(C)C(=O)C(C)C(OC2OC(C)CC(N(C)C)C2O)C(C)(OC)CC(C)C(=O)C(C)C2N(C3CN(S(=O)(=O)c4c(C)n[nH]c4C)C3)C(=O)OC12C (stereo not drawn) [Example 3.29, 3-descladinosyl-11,12-dideoxy-6-O-methyl-3-oxo-12,11-(oxycarbonyl-(1-(3,5-dimethyl-1H-pyrazole-4-sulfony)-azetidin-3-yl)-imino)-erythromycin A]	8 (≈ 9.68 µM)	<0.06	<0.06	0.5 (≈ 0.605 µM)	0.25 (≈ 0.303 µM)
CCC1OC(=O)C(C)C(=O)C(C)C(OC2OC(C)CC(N(C)C)C2O)C(C)(OC)CC(C)C(=O)C(C)C2N(C3CN(S(=O)(=O)c4c[nH]c(=O)[nH]c4=O)C3)C(=O)OC12C (stereo not drawn) [Example 3.30, 1,2,3,4-tetrahydro-2,4-dioxopyrimidine-5-sulfonyl]	>64.00	1 (≈ 1.19 µM)	>64.00	32 (≈ 38 µM)	32 (≈ 38 µM)
CCC1OC(=O)C(C)C(=O)C(C)C(OC2OC(C)CC(N(C)C)C2O)C(C)(OC)CC(C)C(=O)C(C)C2N(C3CN(S(=O)(=O)c4ccc(OC)cc4OC)C3)C(=O)OC12C (stereo not drawn) [Example 3.31, 3-descladinosyl-11,12-dideoxy-6-O-methyl-3-oxo-12,11-(1-(oxycarbonyl-(2,4-dimethoxybenzenesulfonyl)-azetidin-3-yl)-imino)-erythromycin A]	4 (≈ 4.61 µM)	<0.06	2 (≈ 2.3 µM)	0.12 (≈ 0.138 µM)	0.5 (≈ 0.576 µM)
